In patent US8257755B2, “Metabolic syndrome-improving agent and medicine, supplement, functional food and food additive containing the same” (ARKRAY, Inc., priority 2005, dated 2012):

Experiments:
[1] = tested on: 3T3-L1 cells; assay: mRNA expression of aP2 and adiponectin in differentiated 3T3-L1 adipocytes (Light Cycler); format: cell-based, mouse; conditions: 7 days after differentiation induction, non-treatment control = 100, average ± standard error
Procedure: (§1) Next, culture preadipocytes 3T3-L1 were thawed, inoculated in a 100 mm dish and cultured until 3T3-L1 cells reached about 80% confluence. A single dish of 3T3-L1 that had reached about 80% confluence was subcultured to a single 6-well plate and further cultured until the 3T3-L1 cells reached confluence in the 6-well plate, and then the medium was replaced with the differentiation induction medium, followed by differentiation induction. 48 hours later, the medium was replaced with the differentiation promotion medium, and thereafter, the medium was replaced with the differentiation promotion medium every two days. 7 days after the initiation of the differentiation induction, mRNA was extracted using Sepasol-RNA I Super (trade name; manufactured by Nacalai Tesque, Inc.), and the mRNA expression amounts of 36B4, aP2 and adiponectin, which were indicators of an early period of adipocyte differentiation, were measured using Light Cycler (TM). Also, the medium 7 days after the differentiation induction was taken in an amount of 1 mL from each well, and the amount of adiponectin in the medium supernatant was measured using a mouse/rat adiponectin ELISA kit (manufactured by Otsuka Pharmaceutical Co., Ltd.).
The medium was removed from the above-described 6-well plate, 1 mL of Sepasol(R)-RNA I Super (manufactured by Nacalai Tesque, Inc.) was added to each well, and pipetting was repeated several times so as to disperse the cells. This solution was transferred to a 1.5 mL tube and allowed to stand for 5 minutes at room temperature, and then 200 μL of chloroform was added, stirred well with a vortex stirrer and allowed to stand for 3 minutes at room temperature. The solution was cooled to 4° C. and centrifuged at 12000×g for 15 minutes. While taking great care not to disturb an interface between a phenol layer (a lower layer, yellow) and a water layer (an upper layer, colorless), the water layer alone was transferred to another tube (with a capacity of 1.5 mL). At this time, care was taken not to take proteins floating between these layers. 500 μL of isopropanol was added to the tube and mixed and allowed to stand for 10 minutes at room temperature. The solution was cooled to 4° C. and centrifuged at 12000×g for 10 minutes, followed by removing about 1 mL of the supernatant. To this precipitate, 1 mL of 75% ethanol was added and stirred to suspend the precipitate sufficiently, and then cooled to 4° C. and centrifuged at 12000×g for 10 minutes, followed by removing the supernatant. The resultant precipitate (total RNA) was dried and then dissolved in 20 μL of nuclease free water, thus measuring the concentration of mRNA using NanoDrop (manufactured by SCRUM Inc.).
The extracted and measured mRNA solution was adjusted to have an mRNA concentration of 1 μg/μL. […]

[2] = tested on: 3T3-L1 cells; assay: Adiponectin secretion amount in 3T3-L1 medium supernatant by ELISA; format: cell-based, mouse; conditions: medium 7 days after differentiation induction, non-treatment control 4.27 ± 0.32, average ± standard error
Procedure: as §1, with “Ltd.). […]” for “Ltd.).”
Only the strips of the antibody plates necessary for the analysis were taken out. […] Incidentally, the standard solutions always were measured for each measurement and each plate. […]

CC(C)=CCC/C(C)=C/COc1c2ccoc2cc2oc(=O)ccc12 [Bergamottin, bergamottin]
Adiponectin mRNA expression amount (ratio to 36B4) ([1]; 1 μM): 189.5 ± 9.7 | aP2 mRNA expression amount (ratio to 36B4) ([1]; 1 μM): 157.5 ± 7.3 | Adiponectin mRNA expression amount (ratio to 36B4) ([1]; 5 μM): 227.2 ± 16.0 | aP2 mRNA expression amount (ratio to 36B4) ([1]; 5 μM): 194.6 ± 9.0 | Adiponectin secretion amount ([2]; 1 μM): 4.37 ± 0.12 | Adiponectin secretion amount ([2]; 5 μM): 8.14 ± 0.36
